# Target: T1, human TRPV4 (Homo sapiens, UniProt Q9HBA0)
# T1 construct: expressed in transfected cells; host or cells: HeLa cells, transient transfection with pcDNA3.1 Directional TOPO vector
# Experiment: Measurement of intracellular calcium ion influx activity in human TRPV4 expressing cells (HeLa, Fluo4) stimulated with TRPV4 agonist GSK1016790a
# Format: cell-based
# Conditions: for Intracellular Ca^2+ influx rate (%): GSK + solvent = 100%, human TRPV4 expressing HeLa cells, n = 3, Mean ± S.E.; for calcium ion influx caused by the TRPV4 agonist (result in words): summary of Table 1, Dunnett's test vs GSK1016790a + solvent
# Experimental: Polymerase chain reaction (PCR) was performed under the following conditions using a primer set comprising the oligonucleotides represented by the following base sequences which were synthesized with reference to published human TRPV4 gene sequences using a cDNA obtained by reverse-transcribing a totalRNA extracted from the Hutu-80 cell, as a template.
# The obtained PCR product was purified using the High Pure PCR Product Purification Kit. The human TRPV4 gene expression vector was produced using the purified PCR product and the pcDNA3.1 Directional TOPO Expression Kit.
# The HeLa cell was cultured using the DMEM/F12 medium containing 10% of fetal bovine serum. The HeLa cell was seeded in a T-75 cell culture flask at 5×10^5 cells/Flask. After three days of culture, the human TRPV4 gene expression vector (8 μg) produced in the above (2) was transfected into the cell using the TransIT-HeLaMONSTER Transfection Kit and cultured for 1 day.
# The cell was detached using the Detachin and seeded at a density of 1.5×10^4 cells/90 μL/well in the DMEM/F12 medium containing 10% of fetal bovine serum on the 96 well Optical bottom plate and cultured for further 1 day.
# Measurement of the intracellular calcium ion influx activity was performed using the Calcium Kit II—fluo 4. After the Loading buffer containing the Fluo4-AM and the Hanks' balanced salt solution were mixed at a ratio of 1:1, 180 μL/well of the mixture was added to the human TRPV4 expressing cell produced in the above (3) and incubated at 37° C. for 1 hour. Thereafter, fluorescence intensity (excitation wavelength: 488 nm, fluorescence wavelength: 524 nm) was measured using a fluorescent plate reader FDSS3000 (Hamamatsu Photonics K.K.) at 37° C. every 2 seconds. The GSK1016790a which is the TRPV4 agonist and each of the 4,3′-di-O-methyl-rosmarinic acid, 3′,4′-di-O-methyl-rosmarinic acid, 4,4′-di-O-methyl-rosmarinic acid, and 3,4-di-O-methyl-rosmarinic acid solution prepared in Production Examples as samples were diluted with the Hanks' balanced salt solution, 20 μL/well of the mixed solution thereof (they were mixed just before the addition) was added to the cell after 30 seconds after the start of the measurement, and the change of the fluorescence intensity was measured every 2 seconds until 300 seconds. The GSK1016790a was added so as to have a final concentration of 3 nM.
# As a positive control of the TRPV4 activity inhibition, HC067047, which is the TRPV4 antagonist, was added to the cell in a final concentration of 10 μM.
# The TRPV4 activity of the samples was calculated by the following equation, assuming that the influx rate of calcium ions by the treatment of the GSK1016790a, which is the TRPV4 agonist, is 100%.
# Influx rate of calcium ions (%)=[(Fmax/F0)−(FmaxC2/F0C2)]/[(FmaxC1/FOC1)−(FmaxC2/F0C2)]×100 (Expression 1)
# Fmax: The maximum fluorescence intensity of the well to which the GSK1016790a and a sample were added, at from 0 to 300 seconds after the start of the measurement
# FmaxC1: The maximum fluorescence intensity of the well to which the GSK1016790a and a solvent were added, at from 0 to 300 seconds after the start of the measurement
# FmaxC2: The maximum fluorescence intensity of the well to which only a solvent was added, at from 0 to 300 seconds after the start of the measurement
# F0: The fluorescence intensity of the same well as Fmax, immediately after the start of the measurement
# F0C1: The fluorescence intensity of the same well as FmaxC1, immediately after the start of the measurement
# F0C2: The fluorescence intensity of the well to which only a solvent was added, immediately after the start of the measurement
# The influx rates of calcium ions (n=3 for each group) in the case of adding samples were tested using the Dunnett's test by comparing with the case of adding the GSK1016790a+a solvent. […] The results were presented as the average value (Mean)±standard error (S.E.).
# [1] = sample 30 μM + GSK1016790a 3 nM
# [2] = sample 100 μM + GSK1016790a 3 nM
# T1 sequence (Q9HBA0 whole entry): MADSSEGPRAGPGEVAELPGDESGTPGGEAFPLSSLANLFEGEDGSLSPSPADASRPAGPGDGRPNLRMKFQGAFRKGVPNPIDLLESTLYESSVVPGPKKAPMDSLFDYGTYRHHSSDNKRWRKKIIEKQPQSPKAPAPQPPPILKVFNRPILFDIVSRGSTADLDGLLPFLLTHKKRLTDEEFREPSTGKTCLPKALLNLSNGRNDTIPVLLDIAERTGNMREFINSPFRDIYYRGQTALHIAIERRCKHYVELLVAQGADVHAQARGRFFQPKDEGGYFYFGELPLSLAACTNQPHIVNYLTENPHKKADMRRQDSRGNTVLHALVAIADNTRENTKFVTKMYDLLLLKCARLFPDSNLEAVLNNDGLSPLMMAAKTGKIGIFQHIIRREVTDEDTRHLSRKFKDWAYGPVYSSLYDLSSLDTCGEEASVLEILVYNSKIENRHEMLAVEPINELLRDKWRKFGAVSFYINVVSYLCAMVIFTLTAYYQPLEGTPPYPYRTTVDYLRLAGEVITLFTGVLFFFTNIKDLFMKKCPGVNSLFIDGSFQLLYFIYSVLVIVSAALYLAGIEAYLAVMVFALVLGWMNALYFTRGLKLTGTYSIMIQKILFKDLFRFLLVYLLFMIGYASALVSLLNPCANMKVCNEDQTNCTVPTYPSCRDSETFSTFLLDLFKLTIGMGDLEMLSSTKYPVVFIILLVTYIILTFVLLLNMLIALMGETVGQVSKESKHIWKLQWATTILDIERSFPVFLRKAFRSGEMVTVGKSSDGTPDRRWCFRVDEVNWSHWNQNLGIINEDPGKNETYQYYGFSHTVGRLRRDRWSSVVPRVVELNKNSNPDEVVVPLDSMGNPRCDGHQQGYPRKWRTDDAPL
Intracellular Ca^2+ influx rate (%) [1],Intracellular Ca^2+ influx rate (%) [2],Structure (SMILES),calcium ion influx caused by the TRPV4 agonist (result in words),Intracellular Ca^2+ influx rate (%) (sample 10 μM + GSK1016790a 3 nM)
80.66 ± 1.58 (P < 0.01) %,78.99 ± 3.27 (P < 0.01) %,"COc1ccc(CC(OC(=O)/C=C/c2ccc(O)c(O)c2)C(=O)O)cc1OC (stereo not shown) [3,4-DiMe-RA, (E)-3-(3,4-dimethoxyphenyl)-2-{[3-(3,4-dihydroxyphenyl)acryloyl]oxy}propionic acid]",significantly reduced the calcium ion influx,–
78.81 ± 3.67 (P < 0.01) %,81.74 ± 1.18 (P < 0.01) %,"COc1ccc(/C=C/C(=O)OC(Cc2ccc(O)c(O)c2)C(=O)O)cc1OC (stereo not shown) [3′,4′-DiMe-RA, (E)-3-(3,4-dihydroxyphenyl)-2-{[3-(3,4-dimethoxyphenyl)acryloyl]oxy}propionic acid]",significantly reduced the calcium ion influx,–
85.31 ± 8.14 (P < 0.05) %,81.02 ± 1.18 (P < 0.01) %,"COc1ccc(CC(OC(=O)/C=C/c2ccc(O)c(OC)c2)C(=O)O)cc1O (stereo not shown) [4,3′-DiMe-RA, (E)-3-(3-hydroxy-4-methoxyphenyl)-2-{[3-(4-hydroxy-3-methoxyphenyl)acryloyl]oxy}propionic acid]",significantly reduced the calcium ion influx,–
83.19 ± 4.69 (P < 0.05) %,75.87 ± 3.39 (P < 0.001) %,"COc1ccc(/C=C/C(=O)OC(Cc2ccc(OC)c(O)c2)C(=O)O)cc1O (stereo not shown) [4,4′-DiMe-RA, (E)-3-(3-hydroxy-4-methoxyphenyl)-2-{[3-(3-hydroxy-4-methoxyphenyl)acryloyl]oxy}propionic acid]",significantly reduced the calcium ion influx,–
–,–,"Cc1c(C(=O)Nc2cccc(C(F)(F)F)c2)cc(-c2ccccc2)n1CCCN1CCOCC1 [HC067047, reference compound]",–,0.63 ± 0.14 (P < 0.001) %
